Values of other authors as cited in patent US12060328B2, “Co-crystals or salts of psilocybin and methods of treatment therewith” (RESET PHARMACEUTICALS, INC., priority 2022, dated 2024).

Details: cited from earlier work; for pKa (acidic) / pKa (basic): co-former property, Table 1

Compound: NC(CS)C(=O)O (racemic) [DL-cysteine]
- pKa (acidic): 1.71
- pKa (basic): 8.33

Compound: OC[C@@H](O)[C@@H](O)[C@H](O)[C@H](O)CO [D-mannitol]
- pKa (acidic): 13.50

Compound: O=C1CC[C@@H](C(=O)O)N1 [L-pyroglutamic acid]
- pKa (acidic): 3.48

Compound: O=C(O)[C@H](O)[C@@H](O)[C@H](O)[C@H](O)CO [gluconic acid]
- pKa (acidic): 3.6

Compound: NC(=O)c1ccncc1 [isonicotinamide]
- pKa (basic): 3.61

Compound: OC[C@@H](O)[C@@H](O)CO [meso-erythritol]
- pKa (acidic): 13.90

Compound: CCCOC(=O)c1cc(O)c(O)c(O)c1 [propyl 3,4,5-trihydroxybenzoate]
- pKa (acidic): 7.94

Compound: CN(C)CCc1c[nH]c2cccc(OP(=O)(O)O)c12 [psilocybin, [3-(2-dimethylaminoethyl)-1H-indol-4-yl]dihydrogen phosphate]
- pKa3 (tertiary amine) (estimated) (reported value, estimated): 10.4
- pKa1 (1st phosphate oxygen) (reported value): 1.3
- pKa2 (2nd phosphate oxygen) (reported value): 6.5

Compound: Cn1c(=O)c2[nH]cnc2n(C)c1=O [theophylline]
- pKa (acidic): 8.81

Compound: NC(CO)(CO)CO [tromethamine]
- pKa (basic): 8.95

Compound: NC(N)=O [urea]
- pKa (basic): 0.10
